Earlier results, collected in patent publication US20260069593A1, “METHODS FOR TREATING CANCER” (AMGEN INC., priority 2022, published 2026).

System: extracellular signal-regulated kinase (ERK)
Settings: preclinical studies

C=CC(=O)N1CCN(c2nc(=O)n(-c3c(C)ccnc3C(C)C)c3nc(-c4c(O)cccc4F)c(F)cc23)[C@@H](C)C1 (atropisomer, axis not shown; (M)) [sotorasib, 6-fluoro-7-(2-fluoro-6-hydroxyphenyl)-(1M)-1-[4-methyl-2-(propan-2-yl)pyridin-3-yl]-4-[(2S)-2-methyl-4-(prop-2-enoyl)piperazin-1-yl]pyrido[2,3-d]pyrimidin-2(1H)-one]
phosphorylation of extracellular signal-regulated kinase (ERK): inhibited nearly all detectable phosphorylation of extracellular signal-regulated kinase (ERK)
